In ChEMBL document CHEMBL1126378, “Substrate selectivity of imidazole-appended dimethyl--cyclodextrin” (Bioorg Med Chem Lett, 1992):

How the values were obtained:
[1] = Kinetic parameter kcat for hydrolysis at 25 degrees Celsius using phosphate buffer in reaction with 3-[2-(4-imidazolyl)ethyl] […]
[2] = Ratio of kcat and kun was determined
[3] = Kinetic parameter Kun for hydrolysis at 25 degrees Celsius using phosphate buffer in reaction with 3-[2-(4-imidazolyl)ethyl] […]
[4] = Kinetic parameter Km for hydrolysis at 25 degrees Celsius using phosphate buffer in reaction with 3-[2-(4-imidazolyl)ethyl] […]
[5] = Ratio of kcat and Km was determined

k cat [1]	k cat/Kuncat [2]	Kun [3]	Km [4]	k cat/Km [5]	SMILES
0.0519 s⁻¹	92	0.000562 s⁻¹	1470 µM	35.4 M⁻¹ s⁻¹	CC(=O)NCC(=O)Oc1ccc([N+](=O)[O-])cc1
0.0371 s⁻¹	26	0.00144 s⁻¹	1350 µM	27.5 M⁻¹ s⁻¹	CC(=O)NC(C)C(=O)Oc1ccc([N+](=O)[O-])cc1 (stereo not given)

The next lines start with the molecule.

SMILES	k cat [1]	k cat/Kuncat [2]	Kun [3]	Km [4]	k cat/Km [5]
CC(C)(C)OC(=O)NCC(=O)Oc1ccc([N+](=O)[O-])cc1	0.0312 s⁻¹	242	0.000129 s⁻¹	387 µM	80.5 M⁻¹ s⁻¹
CC(=O)N[C@@H](Cc1ccccc1)C(=O)Oc1ccc([N+](=O)[O-])cc1	0.011 s⁻¹	13	0.000861 s⁻¹	148 µM	73.9 M⁻¹ s⁻¹
CC(=O)N[C@H](Cc1ccccc1)C(=O)Oc1ccc([N+](=O)[O-])cc1	0.0238 s⁻¹	28	0.000861 s⁻¹	478 µM	49.7 M⁻¹ s⁻¹
